Measured values as given in US20120283403A1, “Phenylboronic Acid Monomer and Phenylboronic Acid Polymer” (National Institute for Materials Science, priority 2010, published 2012).

From the text: Subsequently, for the sample 1, the comparative sample 1 and the comparative sample 2, the relationships between glucose concentrations and apparent changes in pKa were derived by acid-base titration under various glucose concentration conditions (0 g/L, 1 g/L, 3 g/L, 5 g/L, and 10 g/L).

With `C=CC(=O)NCCNC(=O)c1ccc(B(O)O)cc1F` [sample 1, 4-(2-acrylamideethylcarbamoyl)-3-fulorophenylboronic acid] the “apparent pKa” value (all glucose concentrations (0, 1, 3, 5 and 10 g/L), FIG. 2, samples a1 to a5) was < 7.4 and the “degrees of decrease in pKa according to the increase in the concentrations of glucose” value (compared with comparative samples 1 and 2, glucose 0 to 10 g/L) was “excellent”.
